Experimental data from ChEMBL document CHEMBL1201862, “PubChem BioAssay data set” (2004).
The source made the active and inactive calls.

Columns and labels:
[1] = Luminescence Cell-Based Dose Confirmation HTS to Identify Activators of 5'UTR Stem-Loop Driven Alpha-Synuclein mRNA Translation in H4 Neuroglioblastoma Cells. [Related pubchem assays: 1829 (Project Summary), 1814 (Primary HTS)]; format: functional
[2] = Luminescence Cell-Based Dose Response HTS to Identify Activators of Luciferase Translation or Activity in H4 […] Cells. [Related pubchem assays: 1829 (Project Summary), 1814 (Primary HTS)]; format: functional
H4 = assay: Luminescence Cell-Based Dose Response HTS to Identify Activators of 5'UTR Stem-Loop Driven Prion Protein mRNA Translation in H4 Neuroglioblastoma Cells. [Related pubchem assays: 1829 (Project Summary), 1814 (Primary HTS)]; format: functional; conditions: Homo sapiens
[3] = biological target: Voltage-dependent T-type calcium channel subunit alpha-1H (Homo sapiens, UniProt O95180); format: functional;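 also: channel activity triggered by adding a high calcium stimulation buffer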
Caspase-3 = biological target: T1, Caspase-3 (Homo sapiens, UniProt P42574); format: functional;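 also: Dose-response selectivity test against caspase-3 for candidate inhibitors of sentrin-specific proteases (SENPs)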
T1 sequence (P42574 whole entry): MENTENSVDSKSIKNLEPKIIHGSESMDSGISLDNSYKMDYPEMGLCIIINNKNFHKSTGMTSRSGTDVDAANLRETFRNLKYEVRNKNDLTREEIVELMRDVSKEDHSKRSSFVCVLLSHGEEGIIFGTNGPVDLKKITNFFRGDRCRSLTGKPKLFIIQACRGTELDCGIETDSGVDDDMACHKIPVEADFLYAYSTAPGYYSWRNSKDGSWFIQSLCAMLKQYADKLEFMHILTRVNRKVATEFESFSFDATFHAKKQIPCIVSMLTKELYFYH

[4] = biological target: T2, Sentrin-specific protease 7 (Homo sapiens, UniProt Q9BQF6); format: functional;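 also: Luminescence-based dose-response confirmation of ultra-high-throughput screening hits, measuring inhibition of SENP7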
T2 sequence (Q9BQF6 whole entry): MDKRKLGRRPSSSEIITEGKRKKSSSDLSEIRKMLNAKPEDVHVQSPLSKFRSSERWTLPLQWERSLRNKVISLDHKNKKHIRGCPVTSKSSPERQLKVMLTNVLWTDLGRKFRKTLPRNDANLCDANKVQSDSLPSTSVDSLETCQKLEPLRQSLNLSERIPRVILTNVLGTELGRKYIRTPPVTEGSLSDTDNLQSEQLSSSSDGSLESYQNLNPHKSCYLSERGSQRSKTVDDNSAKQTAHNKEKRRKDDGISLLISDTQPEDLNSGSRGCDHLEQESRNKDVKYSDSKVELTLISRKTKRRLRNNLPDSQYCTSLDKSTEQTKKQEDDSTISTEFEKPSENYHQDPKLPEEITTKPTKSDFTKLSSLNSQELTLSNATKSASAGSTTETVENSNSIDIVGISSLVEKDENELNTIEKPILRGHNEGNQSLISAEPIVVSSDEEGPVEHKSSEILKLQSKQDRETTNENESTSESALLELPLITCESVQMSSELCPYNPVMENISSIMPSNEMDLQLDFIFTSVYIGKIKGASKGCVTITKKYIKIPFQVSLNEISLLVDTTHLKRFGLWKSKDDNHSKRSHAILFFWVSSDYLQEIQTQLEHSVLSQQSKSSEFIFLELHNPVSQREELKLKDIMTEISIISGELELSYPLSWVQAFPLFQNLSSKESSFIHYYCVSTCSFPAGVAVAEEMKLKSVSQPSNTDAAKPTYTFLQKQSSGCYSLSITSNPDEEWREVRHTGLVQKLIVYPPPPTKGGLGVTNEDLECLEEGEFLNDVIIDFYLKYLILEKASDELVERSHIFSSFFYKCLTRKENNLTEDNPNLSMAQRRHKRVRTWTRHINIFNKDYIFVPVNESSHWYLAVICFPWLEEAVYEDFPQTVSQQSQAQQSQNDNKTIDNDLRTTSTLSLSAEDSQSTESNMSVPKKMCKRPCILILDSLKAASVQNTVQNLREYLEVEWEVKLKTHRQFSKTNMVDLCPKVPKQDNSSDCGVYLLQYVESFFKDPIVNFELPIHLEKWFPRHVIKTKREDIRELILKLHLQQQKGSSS

[5] = biological target: T3, Sentrin-specific protease 6 (Homo sapiens, UniProt Q9GZR1); format: functional;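 also: Luminescence-based dose-response confirmatory assay of SENP6 inhibition, following up an ultra-high-throughput screen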
T3 sequence (Q9GZR1 whole entry): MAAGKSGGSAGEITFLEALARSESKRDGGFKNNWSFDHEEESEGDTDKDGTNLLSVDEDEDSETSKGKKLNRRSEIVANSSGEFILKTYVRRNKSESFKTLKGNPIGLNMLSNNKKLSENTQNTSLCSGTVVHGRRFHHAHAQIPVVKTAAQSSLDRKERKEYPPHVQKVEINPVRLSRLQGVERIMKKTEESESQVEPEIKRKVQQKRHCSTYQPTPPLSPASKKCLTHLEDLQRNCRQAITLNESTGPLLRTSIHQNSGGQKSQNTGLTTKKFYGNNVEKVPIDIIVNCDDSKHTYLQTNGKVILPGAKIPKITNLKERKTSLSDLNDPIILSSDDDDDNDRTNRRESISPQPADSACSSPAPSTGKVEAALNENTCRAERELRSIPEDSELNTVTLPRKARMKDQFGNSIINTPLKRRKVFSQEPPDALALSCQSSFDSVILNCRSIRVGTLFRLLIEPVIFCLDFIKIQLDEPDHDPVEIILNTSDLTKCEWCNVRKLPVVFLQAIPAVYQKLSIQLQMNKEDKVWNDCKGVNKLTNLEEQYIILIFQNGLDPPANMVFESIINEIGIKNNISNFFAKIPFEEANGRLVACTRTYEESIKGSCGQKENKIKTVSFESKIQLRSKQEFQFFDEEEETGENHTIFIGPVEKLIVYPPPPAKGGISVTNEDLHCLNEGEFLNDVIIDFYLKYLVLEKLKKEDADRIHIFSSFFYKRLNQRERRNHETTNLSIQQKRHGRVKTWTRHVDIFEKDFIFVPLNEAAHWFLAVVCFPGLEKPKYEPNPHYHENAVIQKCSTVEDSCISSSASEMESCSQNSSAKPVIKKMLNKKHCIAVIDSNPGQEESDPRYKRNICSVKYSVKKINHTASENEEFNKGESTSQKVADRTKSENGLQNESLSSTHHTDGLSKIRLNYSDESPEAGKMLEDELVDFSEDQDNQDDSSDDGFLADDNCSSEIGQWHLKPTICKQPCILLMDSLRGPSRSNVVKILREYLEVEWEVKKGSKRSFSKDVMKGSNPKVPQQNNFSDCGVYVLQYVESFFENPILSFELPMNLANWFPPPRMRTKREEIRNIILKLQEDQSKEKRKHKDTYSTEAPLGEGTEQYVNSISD

[6] = biological target: T4, Sentrin-specific protease 8 (Homo sapiens, UniProt Q96LD8); format: functional;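 also: luminescence read-out of SENP8 inhibition, dose-response confirmation following an ultra-high-throughput screen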
T4 sequence (Q96LD8 whole entry): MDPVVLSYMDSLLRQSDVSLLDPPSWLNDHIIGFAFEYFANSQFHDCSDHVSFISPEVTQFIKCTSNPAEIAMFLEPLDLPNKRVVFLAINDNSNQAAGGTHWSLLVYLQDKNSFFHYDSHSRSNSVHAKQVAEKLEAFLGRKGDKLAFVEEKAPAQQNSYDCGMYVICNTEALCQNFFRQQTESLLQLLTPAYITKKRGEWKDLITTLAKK

[7] = biological target: DNA dC->dU-editing enzyme APOBEC-3A (Homo sapiens, UniProt P31941); assay: Dose Response confirmation of small molecule APOBEC3A DNA Deaminase Inhibitors via a fluorescence-based single-stranded DNA deaminase assay. [Related pubchem assays (depositor defined):AID493011, AID493024]; format: functional
[8] = biological target: DNA dC->dU-editing enzyme APOBEC-3G (Homo sapiens, UniProt Q9HC16); format: functional;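 also: Dose-response counterscreen measuring inhibition of APOBEC3G DNA deaminase activity, run while confirming APOBEC3A inhibitors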
[9] = biological target: T5, Carboxy-terminal domain RNA polymerase II polypeptide A small phosphatase 1 (Homo sapiens, UniProt Q9GZU7); assay: inhibitors of CTDSP1, concentration-response testing, biochemical assay, absorbance-based, actives from ultra-high-throughput screening (AID 540297); format: functional
T5 sequence (Q9GZU7 whole entry): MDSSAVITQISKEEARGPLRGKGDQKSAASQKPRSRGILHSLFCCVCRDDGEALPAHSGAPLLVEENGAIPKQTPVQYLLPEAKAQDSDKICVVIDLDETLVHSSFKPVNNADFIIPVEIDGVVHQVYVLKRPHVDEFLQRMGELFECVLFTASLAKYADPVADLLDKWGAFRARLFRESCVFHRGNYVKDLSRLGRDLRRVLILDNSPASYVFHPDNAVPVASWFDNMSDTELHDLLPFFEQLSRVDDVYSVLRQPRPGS

[10] = biological target: DNA (cytosine-5)-methyltransferase 1 (Homo sapiens, UniProt P26358); assay: DNMT1 methyltransferase inhibitors, confirmation, biochemical, fluorescent molecular beacon (AID 602386); format: functional
HEK293 = assay: cells; format: functional, cell-based; conditions: Homo sapiens
[11] = biological target: T6, Nuclear receptor subfamily 0 group B member 1 (Homo sapiens, UniProt P51843); assay: Luminescence-based cell-based high throughput dose response assay for inhibitors of the orphan nuclear receptor subfamily 0, group B, member 1 (DAX1; NR0B1). [Related pubchem assays (depositor defined):AID504766, AID504790]; format: functional
T6 sequence (P51843 whole entry): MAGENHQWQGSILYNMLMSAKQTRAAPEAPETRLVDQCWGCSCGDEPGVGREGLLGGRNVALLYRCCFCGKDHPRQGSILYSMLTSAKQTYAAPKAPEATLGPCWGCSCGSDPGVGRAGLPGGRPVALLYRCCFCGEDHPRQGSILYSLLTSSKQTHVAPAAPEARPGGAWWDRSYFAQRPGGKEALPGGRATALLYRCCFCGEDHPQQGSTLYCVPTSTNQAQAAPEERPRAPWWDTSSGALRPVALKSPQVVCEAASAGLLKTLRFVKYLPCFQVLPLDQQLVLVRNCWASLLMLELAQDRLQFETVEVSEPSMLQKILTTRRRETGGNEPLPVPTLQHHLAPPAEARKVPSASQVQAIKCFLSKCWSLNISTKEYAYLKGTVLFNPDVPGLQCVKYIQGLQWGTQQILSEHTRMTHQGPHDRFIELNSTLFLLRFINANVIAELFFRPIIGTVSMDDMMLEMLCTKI

[12] = biological target: Voltage-gated inwardly rectifying potassium channel KCNH2 (Homo sapiens, UniProt Q12809); conditions: Potency;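 also: confirmatory quantitative high-throughput screen measuring inhibition of hERG channel activity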
Voltage-gated inwardly rectifying potassium channel KCNH2, sequence (Q12809 whole entry): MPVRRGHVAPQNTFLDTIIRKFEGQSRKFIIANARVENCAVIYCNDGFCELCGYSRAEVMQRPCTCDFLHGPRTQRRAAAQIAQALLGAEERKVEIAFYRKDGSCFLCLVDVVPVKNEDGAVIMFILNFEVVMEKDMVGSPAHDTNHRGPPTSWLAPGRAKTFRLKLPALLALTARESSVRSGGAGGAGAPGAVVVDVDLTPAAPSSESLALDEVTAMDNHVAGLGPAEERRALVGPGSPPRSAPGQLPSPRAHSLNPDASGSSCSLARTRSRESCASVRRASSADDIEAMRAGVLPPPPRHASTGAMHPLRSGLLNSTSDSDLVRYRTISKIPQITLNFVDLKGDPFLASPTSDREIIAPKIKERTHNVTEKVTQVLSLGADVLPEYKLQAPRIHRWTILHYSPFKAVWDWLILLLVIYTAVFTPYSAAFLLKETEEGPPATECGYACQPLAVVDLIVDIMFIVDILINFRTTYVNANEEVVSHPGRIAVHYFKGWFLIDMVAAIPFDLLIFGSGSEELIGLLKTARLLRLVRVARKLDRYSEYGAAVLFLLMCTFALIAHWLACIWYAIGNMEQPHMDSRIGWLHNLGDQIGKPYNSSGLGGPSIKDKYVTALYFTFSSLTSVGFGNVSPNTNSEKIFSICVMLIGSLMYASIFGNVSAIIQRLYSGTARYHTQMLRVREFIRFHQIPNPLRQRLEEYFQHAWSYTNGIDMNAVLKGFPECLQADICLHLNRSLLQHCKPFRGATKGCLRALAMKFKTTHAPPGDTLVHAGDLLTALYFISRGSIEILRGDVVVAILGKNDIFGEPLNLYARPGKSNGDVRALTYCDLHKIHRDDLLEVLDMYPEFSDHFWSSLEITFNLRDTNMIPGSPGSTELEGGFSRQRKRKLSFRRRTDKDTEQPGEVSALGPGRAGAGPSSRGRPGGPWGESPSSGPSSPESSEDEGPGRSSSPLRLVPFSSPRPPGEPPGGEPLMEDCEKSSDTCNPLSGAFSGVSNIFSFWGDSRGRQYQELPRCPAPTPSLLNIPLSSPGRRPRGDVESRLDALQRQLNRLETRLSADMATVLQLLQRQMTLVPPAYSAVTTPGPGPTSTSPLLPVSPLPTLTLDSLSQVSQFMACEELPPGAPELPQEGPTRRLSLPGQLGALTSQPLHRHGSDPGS

DNA dC->dU-editing enzyme APOBEC-3G, sequence (Q9HC16 whole entry, the tested form may be a part): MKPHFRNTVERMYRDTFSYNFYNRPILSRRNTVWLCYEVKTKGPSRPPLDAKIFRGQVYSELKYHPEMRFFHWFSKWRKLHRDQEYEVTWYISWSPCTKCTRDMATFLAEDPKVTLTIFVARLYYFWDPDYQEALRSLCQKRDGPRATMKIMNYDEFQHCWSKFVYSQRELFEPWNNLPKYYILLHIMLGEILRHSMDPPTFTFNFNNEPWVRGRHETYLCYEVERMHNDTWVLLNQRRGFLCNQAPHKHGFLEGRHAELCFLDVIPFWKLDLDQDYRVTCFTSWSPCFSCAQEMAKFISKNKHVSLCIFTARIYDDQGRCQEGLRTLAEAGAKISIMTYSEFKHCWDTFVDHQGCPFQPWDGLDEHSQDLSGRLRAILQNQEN
Voltage-dependent T-type calcium channel subunit alpha-1H, sequence (O95180 whole entry): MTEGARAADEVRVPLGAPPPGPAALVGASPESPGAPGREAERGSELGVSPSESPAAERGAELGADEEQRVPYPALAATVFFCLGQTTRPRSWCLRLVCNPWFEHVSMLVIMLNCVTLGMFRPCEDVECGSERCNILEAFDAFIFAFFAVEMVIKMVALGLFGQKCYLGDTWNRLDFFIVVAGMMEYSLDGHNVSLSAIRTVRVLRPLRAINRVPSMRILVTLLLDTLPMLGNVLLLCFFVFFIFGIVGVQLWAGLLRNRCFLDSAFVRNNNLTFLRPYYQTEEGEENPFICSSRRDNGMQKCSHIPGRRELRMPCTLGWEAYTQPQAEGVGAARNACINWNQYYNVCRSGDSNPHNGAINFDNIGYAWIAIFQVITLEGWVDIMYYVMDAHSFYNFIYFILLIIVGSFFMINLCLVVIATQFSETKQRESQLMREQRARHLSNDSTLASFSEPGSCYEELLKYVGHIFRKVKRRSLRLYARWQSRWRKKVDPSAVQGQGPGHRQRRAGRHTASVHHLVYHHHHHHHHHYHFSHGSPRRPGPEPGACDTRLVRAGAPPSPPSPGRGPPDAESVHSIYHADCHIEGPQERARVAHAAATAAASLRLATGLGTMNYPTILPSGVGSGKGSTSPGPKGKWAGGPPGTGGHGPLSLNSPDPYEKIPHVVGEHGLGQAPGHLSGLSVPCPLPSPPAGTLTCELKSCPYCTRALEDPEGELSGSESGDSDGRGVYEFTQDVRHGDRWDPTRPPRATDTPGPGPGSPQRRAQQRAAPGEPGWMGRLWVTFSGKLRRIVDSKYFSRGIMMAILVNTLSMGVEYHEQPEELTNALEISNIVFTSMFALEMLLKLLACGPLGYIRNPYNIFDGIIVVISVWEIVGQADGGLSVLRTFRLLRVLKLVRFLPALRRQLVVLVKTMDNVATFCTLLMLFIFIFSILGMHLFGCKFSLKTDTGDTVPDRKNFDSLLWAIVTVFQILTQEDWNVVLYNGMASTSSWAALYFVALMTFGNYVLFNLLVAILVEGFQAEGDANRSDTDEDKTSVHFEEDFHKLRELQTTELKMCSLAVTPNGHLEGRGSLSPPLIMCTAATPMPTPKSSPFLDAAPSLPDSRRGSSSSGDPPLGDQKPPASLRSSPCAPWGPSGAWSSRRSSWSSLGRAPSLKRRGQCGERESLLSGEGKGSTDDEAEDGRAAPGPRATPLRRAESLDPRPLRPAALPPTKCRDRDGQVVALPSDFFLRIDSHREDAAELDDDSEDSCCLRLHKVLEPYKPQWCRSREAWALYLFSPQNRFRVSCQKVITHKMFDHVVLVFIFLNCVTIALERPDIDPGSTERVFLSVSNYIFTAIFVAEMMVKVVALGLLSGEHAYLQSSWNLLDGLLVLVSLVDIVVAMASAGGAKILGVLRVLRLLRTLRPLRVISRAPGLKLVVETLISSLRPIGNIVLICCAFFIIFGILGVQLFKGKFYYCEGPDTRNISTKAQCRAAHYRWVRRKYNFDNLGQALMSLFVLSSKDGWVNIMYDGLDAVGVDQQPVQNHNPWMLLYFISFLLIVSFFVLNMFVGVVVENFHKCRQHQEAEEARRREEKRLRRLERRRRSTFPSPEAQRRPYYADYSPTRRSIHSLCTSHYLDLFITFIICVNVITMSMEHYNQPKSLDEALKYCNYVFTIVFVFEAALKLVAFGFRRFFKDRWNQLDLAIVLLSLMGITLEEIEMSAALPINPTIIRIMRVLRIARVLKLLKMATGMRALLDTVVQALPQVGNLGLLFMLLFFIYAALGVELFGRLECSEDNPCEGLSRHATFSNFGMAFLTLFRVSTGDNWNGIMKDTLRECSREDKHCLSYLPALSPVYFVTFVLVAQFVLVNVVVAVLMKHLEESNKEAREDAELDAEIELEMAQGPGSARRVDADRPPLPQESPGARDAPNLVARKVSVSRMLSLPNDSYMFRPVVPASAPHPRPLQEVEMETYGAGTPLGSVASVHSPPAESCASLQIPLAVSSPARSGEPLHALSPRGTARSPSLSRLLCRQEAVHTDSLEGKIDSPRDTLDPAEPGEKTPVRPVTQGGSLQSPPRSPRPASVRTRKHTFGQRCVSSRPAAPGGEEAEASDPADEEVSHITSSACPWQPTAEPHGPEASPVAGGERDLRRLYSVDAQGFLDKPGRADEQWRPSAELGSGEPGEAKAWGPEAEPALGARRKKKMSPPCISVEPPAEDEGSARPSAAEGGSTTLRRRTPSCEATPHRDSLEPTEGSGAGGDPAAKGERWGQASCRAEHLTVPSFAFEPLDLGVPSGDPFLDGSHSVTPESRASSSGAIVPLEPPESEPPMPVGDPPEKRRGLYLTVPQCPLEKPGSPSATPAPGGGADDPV
DNA dC->dU-editing enzyme APOBEC-3A, sequence (P31941 whole entry): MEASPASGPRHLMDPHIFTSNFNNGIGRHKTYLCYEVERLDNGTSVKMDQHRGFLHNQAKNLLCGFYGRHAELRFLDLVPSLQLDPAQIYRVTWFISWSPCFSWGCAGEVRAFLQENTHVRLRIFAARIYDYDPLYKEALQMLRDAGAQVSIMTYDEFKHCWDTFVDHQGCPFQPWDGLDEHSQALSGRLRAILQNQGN

With `Cc1nnc(SCCC(=O)Nc2nc(-c3ccccc3)ns2)s1` as the compound, how does the EC50 [1] read?
Its EC50 is > 120 µM (not active).

What about the EC50 [2] of the same compound?
The EC50 was 15 µM (active).

And the EC50 (H4)?
The EC50 was 8.61 µM (active).

And the EC50 [3]?
Its EC50 is 2.54 µM (active).

And the IC50 (Caspase-3)?
Its IC50 is 44.1 µM (active).

And the IC50 [4]?
The IC50 was 13.1 µM (active).

And the IC50 [5]?
Its IC50 is 21.9 µM (active).

And the IC50 [6]?
Its IC50 is 24.1 µM (active).

Which IC50 [7] does the source give for `O=C(COC(=O)c1cc2c(s1)CCC2)Nc1ccc(F)cc1` here?
Its IC50 is 19.6 µM (active).

What about the IC50 [8] of the same compound?
Its IC50 is 34.6 µM (active).

What about the IC50 [9] of the same compound?
The IC50 was 4.34 µM (active).

What about the IC50 [10] of the same compound?
The IC50 was 10.3 µM (active).

For `O=CNC(n1cnc2c(N3CCOCC3)ncnc21)C(Cl)(Cl)Cl` (stereo not given), which IC50 (HEK293) is on record?
The IC50 was > 67.5 µM (inactive).

And the IC50 [11]?
Its IC50 is > 67.5 µM (inactive).

With `NC(=S)NCCCC(N)C(=O)O` (stereo not given) as the compound, how does the AC50 [12] read?
Its AC50 is 35.5 µM (inconclusive).
